From patent US12077503B2, “Substituted cyclic amides and their use as herbicides” (FMC CORPORATION, priority 2015, dated 2024)

How the values were obtained:
Assay type in all cases: in vivo
[1] = system: giant foxtail (Setaria faberi); test: Test G Pre-Emergence Protocol; conditions: Setaria faberi, pre-emergence, 312 h, evaluated after 13 days; for pest or weed control at 15.625 g/ha: 15.625 g ai/ha; for pest or weed control at 15.625 g/ha / pest or weed control at 250 g/ha: read-out: Foxtail, Giant damage rating (100=total damage to plant; 0=no damage to plant); for pest or weed control at 62.5 g/ha: 62.5 g ai/ha, 100=total damage to plant, 0=no damage to plant, read-out: Foxtail, Giant damage rating; for pest or weed control at 250 g/ha: 250 g ai/ha
How it was run: (§1)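 Spraying took place one day after sowing, at 15.625, 62.5 or 250 g/ha, using an acetone/water (50:50) spray solution containing 0.5% Tween 20. Plants were kept under glasshouse conditions (24/16 °C, 14 h light, 65% humidity, watered twice daily), and injury was rated 0–100 at day 13.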

[2] = system: ivy-leaved morning glory (Ipomoea hederacea); test: Test G Pre-Emergence Protocol; conditions: Ipomoea, pre-emergence, 312 h, evaluated after 13 days; for pest or weed control at 15.625 g/ha: 15.625 g ai/ha; for pest or weed control at 15.625 g/ha / pest or weed control at 250 g/ha: read-out: Morningglory, Ivy-leaved damage rating (100=total damage to plant; 0=no damage to plant); for pest or weed control at 62.5 g/ha: 62.5 g ai/ha, 100=total damage to plant, 0=no damage to plant, read-out: Morningglory, Ivy-leaved damage rating; for pest or weed control at 250 g/ha: 250 g ai/ha
How it was run: as §1

corn (Zea mays) [3] = test: Test G Pre-Emergence Protocol; conditions: Zea mays, pre-emergence, 312 h, evaluated after 13 days; for plant injury at 15.625 g/ha: 15.625 g ai/ha; for plant injury at 15.625 g/ha / plant injury at 250 g/ha: read-out: Corn damage rating (100=total damage to plant; 0=no damage to plant); for plant injury at 62.5 g/ha: 62.5 g ai/ha, 100=total damage to plant, 0=no damage to plant, read-out: Corn damage rating; for plant injury at 250 g/ha: 250 g ai/ha
How it was run: as §1

[4] = system: velvetleaf (Abutilon theophrasti); test: Test G Pre-Emergence Protocol; conditions: Abutilon theophrasti, pre-emergence, 312 h, evaluated after 13 days; for pest or weed control at 15.625 g/ha: 15.625 g ai/ha; for pest or weed control at 15.625 g/ha / pest or weed control at 250 g/ha: read-out: Velvetleaf damage rating (100=total damage to plant; 0=no damage to plant); for pest or weed control at 62.5 g/ha: 62.5 g ai/ha, 100=total damage to plant, 0=no damage to plant, read-out: Velvetleaf damage rating; for pest or weed control at 250 g/ha: 250 g ai/ha
How it was run: as §1

[5] = system: barnyardgrass (Echinochloa crus-galli); test: Test G Pre-Emergence Protocol; conditions: Echinochloa crus-galli, pre-emergence, 312 h, evaluated after 13 days; for pest or weed control at 15.625 g/ha: 15.625 g ai/ha; for pest or weed control at 15.625 g/ha / pest or weed control at 250 g/ha: read-out: Barnyardgrass damage rating (100=total damage to plant; 0=no damage to plant); for pest or weed control at 62.5 g/ha: 62.5 g ai/ha, 100=total damage to plant, 0=no damage to plant, read-out: Barnyardgrass damage rating; for pest or weed control at 250 g/ha: 250 g ai/ha
How it was run: as §1

[6] = system: redroot pigweed (Amaranthus retroflexus); test: Test G Pre-Emergence Protocol; conditions: Amaranthus retroflexus, pre-emergence, 312 h, evaluated after 13 days; for pest or weed control at 15.625 g/ha: 15.625 g ai/ha; for pest or weed control at 15.625 g/ha / pest or weed control at 250 g/ha: read-out: Pigweed, Redroot damage rating (100=total damage to plant; 0=no damage to plant); for pest or weed control at 62.5 g/ha: 62.5 g ai/ha, 100=total damage to plant, 0=no damage to plant, read-out: Pigweed, Redroot damage rating; for pest or weed control at 250 g/ha: 250 g ai/ha
How it was run: as §1

[7] = system: giant foxtail (Setaria faberi); test: Test G Post-Emergence Protocol; conditions: Setaria faberi, post-emergence, 312 h, read-out: Foxtail, Giant damage rating; for pest or weed control at 15.625 g/ha: 15.625 g ai/ha, evaluated after 13 days (100=total damage to plant; 0=no damage to plant); for pest or weed control at 62.5 g/ha: 62.5 g ai/ha; for pest or weed control at 62.5 g/ha / pest or weed control at 250 g/ha: evaluated after 13 days, 100=total damage to plant, 0=no damage to plant; for pest or weed control at 250 g/ha: 250 g ai/ha
How it was run: (§2)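 Values are percent visual injury at 13 days after treatment (0 none, 100 total). Treatment was a post-emergence spray at 15.625, 62.5 or 250 g/ha on 8-day-old pot plants kept at 24/16 °C.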

[8] = system: ivy-leaved morning glory (Ipomoea hederacea); test: Test G Post-Emergence Protocol; conditions: Ipomoea, post-emergence, 312 h, read-out: Morningglory, Ivy-leaved damage rating; for pest or weed control at 15.625 g/ha: 15.625 g ai/ha, evaluated after 13 days (100=total damage to plant; 0=no damage to plant); for pest or weed control at 62.5 g/ha: 62.5 g ai/ha; for pest or weed control at 62.5 g/ha / pest or weed control at 250 g/ha: evaluated after 13 days, 100=total damage to plant, 0=no damage to plant; for pest or weed control at 250 g/ha: 250 g ai/ha
How it was run: as §2

corn (Zea mays) [9] = test: Test G Post-Emergence Protocol; conditions: Zea mays, post-emergence, 312 h, read-out: Corn damage rating; for plant injury at 15.625 g/ha: 15.625 g ai/ha, evaluated after 13 days (100=total damage to plant; 0=no damage to plant); for plant injury at 62.5 g/ha: 62.5 g ai/ha; for plant injury at 62.5 g/ha / plant injury at 250 g/ha: evaluated after 13 days, 100=total damage to plant, 0=no damage to plant; for plant injury at 250 g/ha: 250 g ai/ha
How it was run: as §2

[10] = system: velvetleaf (Abutilon theophrasti); test: Test G Post-Emergence Protocol; conditions: Abutilon theophrasti, post-emergence, 312 h, read-out: Velvetleaf damage rating; for pest or weed control at 15.625 g/ha: 15.625 g ai/ha, evaluated after 13 days (100=total damage to plant; 0=no damage to plant); for pest or weed control at 62.5 g/ha: 62.5 g ai/ha; for pest or weed control at 62.5 g/ha / pest or weed control at 250 g/ha: evaluated after 13 days, 100=total damage to plant, 0=no damage to plant; for pest or weed control at 250 g/ha: 250 g ai/ha
How it was run: as §2

[11] = system: barnyardgrass (Echinochloa crus-galli); test: Test G Post-Emergence Protocol; conditions: Echinochloa crus-galli, post-emergence, 312 h, read-out: Barnyardgrass damage rating; for pest or weed control at 15.625 g/ha: 15.625 g ai/ha, evaluated after 13 days (100=total damage to plant; 0=no damage to plant); for pest or weed control at 62.5 g/ha: 62.5 g ai/ha; for pest or weed control at 62.5 g/ha / pest or weed control at 250 g/ha: evaluated after 13 days, 100=total damage to plant, 0=no damage to plant; for pest or weed control at 250 g/ha: 250 g ai/ha
How it was run: as §2

[12] = system: redroot pigweed (Amaranthus retroflexus); test: Test G Post-Emergence Protocol; conditions: Amaranthus retroflexus, post-emergence, 312 h, read-out: Pigweed, Redroot damage rating; for pest or weed control at 15.625 g/ha: 15.625 g ai/ha, evaluated after 13 days (100=total damage to plant; 0=no damage to plant); for pest or weed control at 62.5 g/ha: 62.5 g ai/ha; for pest or weed control at 62.5 g/ha / pest or weed control at 250 g/ha: evaluated after 13 days, 100=total damage to plant, 0=no damage to plant; for pest or weed control at 250 g/ha: 250 g ai/ha
How it was run: as §2

Compound	pest or weed control at 15.625 g/ha [1] [%]	pest or weed control at 62.5 g/ha [1] [%]	pest or weed control at 250 g/ha [1] [%]	pest or weed control at 15.625 g/ha [2] [%]	pest or weed control at 62.5 g/ha [2] [%]	pest or weed control at 250 g/ha [2] [%]	plant injury at 15.625 g/ha (corn (Zea mays) [3]) [%]	plant injury at 62.5 g/ha (corn (Zea mays) [3]) [%]	plant injury at 250 g/ha (corn (Zea mays) [3]) [%]	pest or weed control at 15.625 g/ha [4] [%]	pest or weed control at 62.5 g/ha [4] [%]	pest or weed control at 250 g/ha [4] [%]	pest or weed control at 15.625 g/ha [5] [%]	pest or weed control at 62.5 g/ha [5] [%]	pest or weed control at 250 g/ha [5] [%]	pest or weed control at 15.625 g/ha [6] [%]	pest or weed control at 62.5 g/ha [6] [%]	pest or weed control at 250 g/ha [6] [%]	pest or weed control at 15.625 g/ha [7] [%]	pest or weed control at 62.5 g/ha [7] [%]	also measured
COCCOc1cccc([C@@H]2CN(C)C(=O)[C@H]2C(=O)Nc2cccc(F)c2C)c1 (racemic) [Compound 1765]	50	70	90	0	0	0	0	0	20	0	0	0	20	50	60	0	0	0	10	60	pest or weed control at 250 g/ha [7]: 70%; pest or weed control at 15.625 g/ha [8]: 0%; pest or weed control at 62.5 g/ha [8]: 0%; pest or weed control at 250 g/ha [8]: 20%; plant injury at 15.625 g/ha (corn (Zea mays) [9]): 0%; plant injury at 62.5 g/ha (corn (Zea mays) [9]): 10%; plant injury at 250 g/ha (corn (Zea mays) [9]): 10%; pest or weed control at 15.625 g/ha [10]: 0%; pest or weed control at 62.5 g/ha [10]: 0%; pest or weed control at 250 g/ha [10]: 0%; pest or weed control at 15.625 g/ha [11]: 0%; pest or weed control at 62.5 g/ha [11]: 30%; pest or weed control at 250 g/ha [11]: 70%; pest or weed control at 15.625 g/ha [12]: 0%; pest or weed control at 62.5 g/ha [12]: 0%; pest or weed control at 250 g/ha [12]: 0%
CN1C[C@H](c2cccc(Cl)c2)[C@@H](C(=O)Nc2cnccc2C(F)(F)F)C1=O (racemic) [Compound 1772]	30	80	90	0	0	60	0	0	60	0	0	40	0	10	80	0	0	10	10	60	pest or weed control at 250 g/ha [7]: 80%; pest or weed control at 15.625 g/ha [8]: 0%; pest or weed control at 62.5 g/ha [8]: 30%; pest or weed control at 250 g/ha [8]: 50%; plant injury at 15.625 g/ha (corn (Zea mays) [9]): 0%; plant injury at 62.5 g/ha (corn (Zea mays) [9]): 0%; plant injury at 250 g/ha (corn (Zea mays) [9]): 60%; pest or weed control at 15.625 g/ha [10]: 0%; pest or weed control at 62.5 g/ha [10]: 0%; pest or weed control at 250 g/ha [10]: 30%; pest or weed control at 15.625 g/ha [11]: 0%; pest or weed control at 62.5 g/ha [11]: 0%; pest or weed control at 250 g/ha [11]: 30%; pest or weed control at 15.625 g/ha [12]: 0%; pest or weed control at 62.5 g/ha [12]: 0%; pest or weed control at 250 g/ha [12]: 10%
